Where two headings read alike, the source gives them in different places.
Legend:
[1] = Transport of digoxin and ginsenosides across Caco-2 cell monolayer (efflux ratio); format: in vitro ADME, human; details: human
Procedure: (§1) Caco-2 cells were purchased from American Type Culture Collection (Manassas, VA), and were routinely cultured in Dulbecco's modified Eagle's medium supplemented with 10% fetal bovine serum, 1% nonessential amino acids, 1 mM sodium pyruvate, and 100 U/mL penicillin and streptomycin (Invitrogen, Carlsbad, CA). The cells were grown in an atmosphere of 5% CO2 at 37°C, and cell medium was changed every other day. Cells were seeded at a density of 4×10^4 cells per well in 24-well microporous polycarbonate insert filter plates (0.4-µm pore size) (Corning Costar plates; Corning Life Sciences, Lowell, MA) and grown for 15 days in Caco-2 growth medium. The medium was replaced every 3 to 4 days. Before running the assay, the culture medium was replaced by HBSS buffer supplemented with 10 mM Hepes and 20 mM glucose.
Caco-2 cells with a density of 1.2×10^5 cells/insert were seeded on a permeable polycarbonate insert (Millicell cell culture inserts, 0.4 µm pore size, 12 mm diameter; Millipore Corporation) in 24-well tissue culture plates and were used for the experiment 18 to 21 days after seeding. [^14C]Mannitol permeability and transepithelial electrical resistance measurements (Millicell-ERS epithelial volt-ohm meter; Millipore Corporation) were used to evaluate the integrity of Caco-2 cell monolayer. The monolayer used in transport studies had transepithelial electrical resistance values exceeding 600 Ω·cm^2, and the leakage of mannitol was less than 0.3% of the dose/h. Before transport initiation studies, the cell monolayer was first washed with warm HBSS (pH 7.4) twice. HBSS containing SLE (2.0 and 10.0 µg/mL) or 1% ethanol (control) was then loaded into both apical and basolateral chambers. After incubation at 37°C for 1.5 h, 100 µg/mL of GE was added to either the apical or basolateral side to evaluate the transport in absorptive and secretory directions, and the cell monolayer was incubated for another 2 h. 10 µM verapamil was used as a positive control inhibitor. At the designated time point, samples were taken from the receiving chamber for analysis. Ginsenosides were determined by LC-MS. All experiments were conducted in triplicate.
For the transport assay, the apparent permeability (P app, cm/s) in each direction (A→B and B→A) was calculated as follows, where A is the surface area of the membrane inserts (0.0804 cm^2), C 0 is the initial concentration of the compound applied in the donor compartment (2 µM), and △Q is the amount (micromoles) of compound transported over time △t (5 h = 18,000 s): [drawing 1]
The efflux ratio (ER) was a dimensionless number calculated as the ratio of the apparent permeability in the B→A direction divided by the apparent permeability in the A→B direction. [drawing 2]

[2] = system: LLC-PK1 cells (lacking P-gp); experiment: Uptake (intracellular accumulation) of digoxin and ginsenosides in LLC-PK1 cells; format: in vitro ADME; details: for Effect of verapamil on intracellular accumulation: 10 µM verapamil; for Effect of SLE on intracellular accumulation: SLE 2.0 and 10.0 µg/mL
Procedure: LLC-PK1 cells, a cell line lacking P-gp, and the derived cell line L-MDR1, which over-express human MDR1-encoded P-gp, were grown in minimum essential medium with supplements at 37°C, 5% CO2, and 95% humidity. LLC-PK1 and L-MDR1 cells were seeded at a density of 12×10^6 cells per 150-cm^2 flask and grown for 7 days in medium 199 supplemented with 2 mM glutamine, 10% fetal bovine serum, 10 mg/500 mL of streptomycin, and 10,000 IU/500 mL of penicillin. To ensure a constant expression level of transport protein, L-MDR1 cells were grown in the presence of 640 nM vincristine. Cells were grown as monolayer on polycarbonate membrane filters (Transwell; Costar Corporation, Cambridge, MA) as outlined previously. Transepithelial resistance was measured in each well using a Millicell ERS ohmmeter (Millipore, Bedford, MA); wells registering a resistance of 200 ohms or greater, after correcting for the resistance obtained in control blank wells, were used in the transport experiments.
(§2) LLC-PK1 and L-MDR1 cells were incubated with SLE (2.0 and 10.0 µg/mL) or verapamil (10 µM) for 1.0 h, and then were washed to discard SLE or verapamil before adding 100 µg/mL of GE. The accumulation of GE lasted for 2 h, and the intracellular concentrations of ginsenosides were measured by LC/MS. All experiments were conducted in triplicate.

[3] = Rat plasma pharmacokinetics after 10-day vehicle/SLE and digoxin or GE; format: in vivo, Sprague-Dawley rats; details: for AUC(0-inf): read-out: AUCINF_obs; for MRT inf: read-out: MRTINF_obs
Procedure: This study was carried out in strict accordance with the recommendations in the Guide for the Care and Use of Laboratory Animals of the National Institutes of Health. The protocol was approved by the Committee on the Ethics of Animal Experiments of the China Pharmaceutical University. All surgery was performed under sodium pentobarbital anesthesia, and all efforts were made to minimize suffering. […] The rats were fed with standard laboratory food and water and fasted overnight but with free access to water before the test. To evaluate the effect of long-term treatment with SLE on the pharmacokinetics of ginsenosides, 24 rats were also divided into four groups (group I∼ group IV) with 6 animals each. […] On the 11th day, digoxin was administered intragastrically to rats (group I and group II) at a single dose of 0.5 mg/kg, GE was administered intragastrically to rats (group III and group IV) at a single dose of 120 mg/kg. […] Plasma was obtained by centrifugation at 5000 g for 10 min and stored at −20°C before analysis. The plasma / cell samples were extracted using a liquid–liquid extraction technique. To each tube containing 100 µL plasma, 10 µL internal standard (digoxin, 1.0 µg/mL) and 1.0 mL of n-butanol were added. The mixture was then vortex-extracted for 2 min, and centrifuged for 10 min at 10,000 g. […] The plasma concentration-time curves of ginsenosides in rats were obtained by plotting the mean plasma concentrations versus time. Pharmacokinetic parameters were calculated using the WinNonlin 6.3 program (Pharsight Inc., Mountain View, CA). The elimination half-life (t 1/2) value was calculated as 0.693/β, where β is the elimination rate constant calculated from the terminal linear portion of the log plasma concentration-time curve. The total areas under the plasma concentration- time curve from time 0 to the last quantifiable time point (AUC0-t) and from time 0 to infinity (AUC0-∞) were calculated using the log trapezoidal rule. [drawing 3] The maximum plasma concentrations (C max) for ginsenosides were obtained by visual inspection of the plasma concentration-time curve, whereas the initial drug concentration (the extrapolated concentration at zero time) of the drug after intravenous injection was calculated by back-extrapolation of the plasma concentration-time curve to the y-axis.

Caco-2 cells = experiment: Uptake of digoxin and ginsenosides in Caco-2 cells; format: in vitro ADME, human; details: for Effect of verapamil on uptake: 10 µM verapamil
Procedure: as §1
as §2, with “Caco-2” for “LLC-PK1 and L-MDR1”, “h. Then the cells” for “h, and then”, “washed with Hank's” for “washed”, “the addition” for “adding 100 µg/mL”, “GE (100 µg/mL).” for “GE.”, “ginsenosides” for “GE”

[4] = female, Sprague-Dawley, rat, plasma, po, rats, SLE 500 mg/kg ig once a day for 10 days, day 11 digoxin 0.5 mg/kg or GE 120 mg/kg ig
[5] = female, Sprague-Dawley, rat, plasma, po, rats, SLE 500 mg/kg ig once a day for 10 days, day 11 digoxin 0.5 mg/kg or GE 120 mg/kg ig, read-out: Tmax
[6] = female, Sprague-Dawley, rat, plasma, po, rats, SLE 500 mg/kg ig once a day for 10 days, day 11 digoxin 0.5 mg/kg or GE 120 mg/kg ig, read-out: t1/2 (converted)
[7] = female, Sprague-Dawley, rat, plasma, po, rats, control: vehicle once a day for 10 days, day 11 digoxin 0.5 mg/kg or GE 120 mg/kg ig
[8] = female, Sprague-Dawley, rat, plasma, po, rats, control: vehicle once a day for 10 days, day 11 digoxin 0.5 mg/kg or GE 120 mg/kg ig, read-out: t1/2 (converted)
[9] = rats, SLE 500 mg/kg ig once a day for 10 days, day 11 digoxin 0.5 mg/kg or GE 120 mg/kg ig
[10] = rats, control: vehicle once a day for 10 days, day 11 digoxin 0.5 mg/kg or GE 120 mg/kg ig

Row | Effect of verapamil on intracellular accumulation [2] | Effect of SLE on intracellular accumulation [2] | AUC [3, 4] [µg·h/mL] | Cmax [3, 4] [µg/mL] | AUC(0-inf) [3, 4] [µg·h/mL] | MRT inf [3, 4] [h] | Tmax [3, 5] [h] | half-life [3, 6] [h] | AUC [3, 7] [µg·h/mL] | Cmax [3, 7] [µg/mL] | AUC(0-inf) [3, 7] [µg·h/mL] | MRT inf [3, 7] [h] | half-life [3, 8] [h] | Cl_F_obs [3, 9] [L/h] | Cl_F_obs [3, 10] [L/h] | Effect of verapamil on uptake (Caco-2 cells) | Structure (SMILES) | further results
1 | no significant difference | no significant difference | 0.123 ± 0.0528 | 0.0229 ± 0.0137 | 0.127 ± 0.0521 | 4.78 ± 0.91 | 3.28 ± 1.73 | 2.19 ± 0.87 | 0.0683 ± 0.026 | 0.0118 ± 0.00422 | 0.0761 ± 0.03 | 5.65 ± 2.85 | 2.99 ± 2.32 | 4.49 ± 1.75 | 7.48 ± 3.09 | significantly enhanced | C[C@H]1O[C@@H](O[C@H]2[C@@H](O)C[C@H](O[C@H]3[C@@H](O)C[C@H](O[C@H]4CC[C@@]5(C)[C@H](CC[C@@H]6[C@@H]5C[C@@H](O)[C@]5(C)[C@@H](C7=CC(=O)OC7)CC[C@]65O)C4)O[C@@H]3C)O[C@@H]2C)C[C@H](O)[C@@H]1O [Digoxin, digoxin, reference compound] | efflux ratio at 2 h, 100 µg/mL ([1]; pH 7.4, Caco-2 cell monolayer, absence of inhibitor, GE 100 µg/mL, read-out: Efflux ratio): 3.23; Tmax ([3]; female, Sprague-Dawley, rat, plasma, po, rats, control: vehicle once a day for 10 days, day 11 digoxin 0.5 mg/kg or GE 120 mg/kg ig, read-out: Tmax): 2.33 ± 1.03 h; Increase of AUC0-τ by 10 continuous days administration of SLE ([3]; rats, SLE 500 mg/kg x 10 days vs vehicle, digoxin 0.5 mg/kg ig on day 11, P<0.05): about 2 fold
2 | no significant difference | no significant difference | 21.3 ± 6.52 | 0.586 ± 0.0952 | 16.6 ± 3.51 | 26.5 ± 6.58 | 10 ± 2.83 | 24.3 ± 8.42 | 15.9 ± 3.31 | 0.512 ± 0.0777 | 22.6 ± 6.12 | 29.5 ± 2.61 | 20.1 ± 3.66 | 0.0047 ± 0.0011 | 0.0062 ± 0.0013 | significantly enhanced | CC(C)=CCC[C@](C)(O[C@@H]1O[C@H](CO[C@@H]2OC[C@H](O)[C@H](O)[C@H]2O)[C@@H](O)[C@H](O)[C@H]1O)[C@H]1CC[C@]2(C)[C@@H]1[C@H](O)C[C@@H]1[C@@]3(C)CC[C@H](O[C@@H]4O[C@H](CO)[C@@H](O)[C@H](O)[C@H]4O[C@@H]4O[C@H](CO)[C@@H](O)[C@H](O)[C@H]4O)C(C)(C)[C@@H]3CC[C@]12C [Rb2, ginsenoside Rb2] | AUCINF_obs [3, 9]: 22.557 ± 6.121 µg·h/mL; Increase of AUC (AUC0-∞) by 10 continuous days administration of SLE ([3]; rats, SLE 500 mg/kg x 10 days vs vehicle, GE ig on day 11): 1.33 fold; AUCINF_obs [3, 10]: 16.6 ± 3.511 µg·h/mL; Effect of SLE on intracellular concentration (Caco-2 cells; SLE 2.0 and 10.0 µg/mL, P<0.01): concentration dependently increase
3 | no significant difference | no significant difference |  |  |  |  |  |  |  |  |  |  |  |  |  |  | CC(C)=CCC[C@](C)(O[C@@H]1O[C@H](CO[C@@H]2O[C@@H](CO)[C@H](O)[C@H]2O)[C@@H](O)[C@H](O)[C@H]1O)[C@H]1CC[C@]2(C)[C@@H]1[C@H](O)C[C@@H]1[C@@]3(C)CC[C@H](O[C@@H]4O[C@H](CO)[C@@H](O)[C@H](O)[C@H]4O[C@@H]4O[C@H](CO)[C@@H](O)[C@H](O)[C@H]4O)C(C)(C)[C@@H]3CC[C@]12C [Rc, ginsenoside Rc] | efflux ratio at 2 h, 100 µg/mL ([1]; Caco-2, pH 7.4): 4.36; Increase of AUC (AUC0-∞) by 10 continuous days administration of SLE ([3]; female, Sprague-Dawley, rat, in vivo): 1.16 fold; t1/2 ([3]; female, Sprague-Dawley, rat, in vivo, po): 20.81 ± 9.64 h; Tmax ([3]; female, Sprague-Dawley, rat, in vivo, po, Tmax): 11.2 ± 1.79 h; half-life ([3]; female, Sprague-Dawley, rat, in vivo, po, t1/2): 26.8 ± 3.08 h

— PMC4055595, “Pharmacokinetic Compatibility of Ginsenosides and Schisandra Lignans in Shengmai-san: From the Perspective of P-Glycoprotein” (PLoS ONE, 2014)
